# Measured values taken from patent US20020025918A1, “Methods of using helical peptides in plants” (priority 1987, published 2002).
# Like-named read-outs stand apart in the source and are kept apart here. Residues, ends and D or L forms follow the SMILES beside them.
# Columns and labels:
# P. aeruginosa = test: MBC and MIC susceptibility test; assay type: cell-based
# B-16 myeloma cells = test: B-16 cell viability, trypan blue exclusion; assay type: cell-based; conditions: 100 μM peptide, one hour
# Method: (§1) B-16 myeloma cells and normal 3T3 […] fibroblasts were either permitted to attach to the test plate, or treated with trypsin to free the cells from the plastic dish prior to treatment. Cells were then treated with 100 μM lytic peptide for one hour as described above, and cell viability was then determined by trypan blue exclusion.
# [1] = Survival of non-infected catfish fingerlings injected with peptide; assay type: in vivo; conditions: 200 μg i.p. once per day for 4 days
# Method: […] Treatment groups of the fish were then injected intraperitoneally (i.p.) with the lytic peptide LSB-37 dissolved in saline, or a saline control once per day for a period of 4 days.
# E. coli = test: MBC and MIC susceptibility test; assay type: cell-based
# Staph Coag neg = test: MIC/MBC, fresh isolates; assay type: cell-based; conditions: fresh isolate Staph Coag neg
# Text: (§2) The procedure of example 2 was followed using a variety of freshly isolated bacterial samples.
# Enterococcus-1 = test: MIC/MBC, fresh isolates; assay type: cell-based; conditions: fresh isolate Enterococcus-1
# Text: as §2
# Enterobacteria Cloacae = test: MIC/MBC, fresh isolates; assay type: cell-based; conditions: fresh isolate Enterobacteria Cloacae
# Text: as §2
# Pseudomonas aeruginosa-3 = test: MIC/MBC, fresh isolates; assay type: cell-based; conditions: fresh isolate Pseudomonas aeruginosa-3
# Text: as §2
# Staph aureus = test: MIC/MBC, fresh isolates; assay type: cell-based; conditions: fresh isolate Staph aureus
# Text: as §2
# Citrobacter Diversus = test: MIC/MBC, fresh isolates; assay type: cell-based; conditions: fresh isolate Citrobacter Diversus
# Text: as §2
# Eschera Coli = test: MIC/MBC, fresh isolates; assay type: cell-based; conditions: fresh isolate Eschera Coli
# Text: as §2
# Enterococcus-3 = test: MIC/MBC, fresh isolates; assay type: cell-based; conditions: fresh isolate Enterococcus-3
# Text: as §2
# Citrobacter Freundii = test: MIC/MBC, fresh isolates; assay type: cell-based; conditions: fresh isolate Citrobacter Freundii
# Text: as §2
# Serratia Marcescens = test: MIC/MBC, fresh isolates; assay type: cell-based; conditions: fresh isolate Serratia Marcescens
# Text: as §2
# Pseudomonas aeruginosa-2 = test: MIC/MBC, fresh isolates; assay type: cell-based; conditions: fresh isolate Pseudomonas aeruginosa-2
# Text: as §2
# Pseudomonas aeruginosa-1 = test: MIC/MBC, fresh isolates; assay type: cell-based; conditions: fresh isolate Pseudomonas aeruginosa-1
# Text: as §2
# Morganella morganil = test: MIC/MBC, fresh isolates; assay type: cell-based; conditions: fresh isolate Morganella morganil
# Text: as §2
# Klebsiella pheumoniae = test: MIC/MBC, fresh isolates; assay type: cell-based; conditions: fresh isolate Klebsiella pheumoniae
# Text: as §2
# Enterococcus-2 = test: MIC/MBC, fresh isolates; assay type: cell-based; conditions: fresh isolate Enterococcus-2
# Text: as §2
# Acinetobacter Cal Anit = test: MIC/MBC, fresh isolates; assay type: cell-based; conditions: fresh isolate Acinetobacter Cal Anit
# Text: as §2
# Klebsiella pheumoniae-2 = test: MIC/MBC, fresh isolates; assay type: cell-based; conditions: fresh isolate Klebsiella pheumoniae-2
# Text: as §2
# S. aureus = test: MBC and MIC susceptibility test; assay type: cell-based
# [2] = 3T3 fibroblast viability, trypan blue exclusion; assay type: cell-based; conditions: human, 100 μM peptide, one hour, read-out: % Cell Viability
# Method: as §1
# [3] = Role of cytoskeletal structure in susceptibility to lysis, FDD cell viability; conditions: donkey, primary fetal donkey dermal cells (FDD), % Viability of Treated DD Cells, 100 μM peptide 15 minutes
# [4] = system: Human mononuclear leukocytes; test: 3H-thymidine uptake in WBC (proliferation); assay type: cell-based
# Method: Human mononuclear leukocytes were isolated from whole blood in the following manner. Blood was collected in vacutainer tubes containing EDTA, and was then diluted with an equal valume of calcium and magnesium-free PBS and layered over Histopaque resin (GIBCO). The tubes were centrifuged for 30 minutes at 25° C. and 450× g. The plasma and platelets above the banded layer of cells in the resulting gradient were removed and discarded. The banded white blood cells were removed to fresh test tubes, washed 3 times with PBS, and resuspended in RPMI medium containing 10% fetal bovine serum (FBS), mercaptoethanol, and penicillin and streptomycin as antibiotics. The cells were then counted and resuspended to a final concentration of 3×10^6 cells/ml.
# To each well of a 96 well flat-bottomed microtiter plate was aded 100 μl of cells (3×10^5 cells). Treatment groups were set in quadruplicate samples. The appropriate concentration of test peptide and/or the mitogen hytohemaglutinate (PHA), was added in a total volume of 100 μl of medium to the test wells. The plates were then incubated at 37° C. and 5% CO2 for a duration of 72 hours. At the end of the incubation period, 1 μCi of 3H-thymidine in 1 μl TRIS-HCI, PH8 was added to each well, and the plates incubated an additional 18 hours.
# Cellular DNA was harvested onto glass fiber filters using a semi-automatic cell harvester. The glass filters were then placed into vials containing scintillation fluid, and the samples were counted in a scintillation counter. The uptake of 3H-thymidine is an indiator of cell proliferation, thus the higher the number of counts in the sample, the greater the proliferative activity of the cells. The results in Table XI indicate that low dose of the synthetic peptides of this invention stimulate cell growth.
# Staph aureus-MR-2 = test: MIC/MBC, fresh isolates; assay type: cell-based; conditions: fresh isolate Staph aureus-MR-2
# Text: as §2
# Staph auerus-MR-1 = test: MIC/MBC, fresh isolates; assay type: cell-based; conditions: fresh isolate Staph auerus-MR-1
# Text: as §2
compound,measurement,setting,value
CC[C@H](C)[C@H](NC(=O)CNC(=O)[C@H](CC(N)=O)NC(=O)[C@H](CCCNC(=N)N)NC(=O)[C@@H](NC(=O)[C@H](CC(N)=O)NC(=O)[C@H](CCCNC(=N)N)NC(=O)CNC(=O)[C@@H](NC(=O)[C@H](CCCCN)NC(=O)[C@H](CCC(=O)O)NC(=O)[C@@H](NC(=O)[C@H](CCCCN)NC(=O)[C@H](CCCCN)NC(=O)[C@H](Cc1ccccc1)NC(=O)[C@@H](NC(=O)[C@H](CCCCN)NC(=O)[C@H](Cc1c[nH]c2ccccc12)NC(=O)[C@H](CCCCN)NC(=O)[C@@H]1CCCN1C(=O)[C@@H](N)CC(C)C)C(C)C)[C@@H](C)CC)C(C)C)[C@@H](C)CC)C(=O)N[C@H](C(=O)N[C@@H](CCCCN)C(=O)N[C@@H](C)C(=O)NCC(=O)N1CCC[C@H]1C(=O)N[C@@H](C)C(=O)N[C@H](C(=O)N[C@@H](C)C(=O)N[C@H](C(=O)N[C@@H](CC(C)C)C(=O)NCC(=O)N[C@@H](CCC(=O)O)C(=O)N[C@@H](C)C(=O)N[C@@H](CCCCN)C(=O)N[C@@H](C)C(=O)N[C@@H](CC(C)C)C(=O)NCC(N)=O)C(C)C)[C@@H](C)CC)C(C)C [LSB-37] (H-LPKWKVFKKIEKVGRNIRNGIVKAGPAIAVLGEAKALG-NH2),antibacterial result of treatment (Table I; MBC),P. aeruginosa; P. aeruginosa (−),8 µM
same,MBC,"P. aeruginosa; Table III, P. aeuriginosa (−)",3.6 µM
same,% Cell Viability,B-16 myeloma cells; B-16 Monolayer,78%
same,% Cell Viability,B-16 myeloma cells; B-16 Suspension (trypsinized),22%
same,% Survival,[1],100%
same,antibacterial result of treatment (Table I; MBC),E. coli,16 µM
same,MBC,E. coli; Table III,2.0 µM
same,MIC,Staph Coag neg,32 µM
same,MBC,Enterococcus-1,32 µM
same,MIC,Enterococcus-1,8 µM
same,MBC,Enterobacteria Cloacae,8 µM
same,MIC,Enterobacteria Cloacae,2 µM
same,MBC,Pseudomonas aeruginosa-3,16 µM
same,MIC,Pseudomonas aeruginosa-3,8 µM
same,MIC,Staph aureus,32 µM
same,MBC,Citrobacter Diversus,4 µM
same,MIC,Citrobacter Diversus,1 µM
same,MBC,Eschera Coli,4 µM
same,MIC,Eschera Coli,1 µM
same,MIC,Enterococcus-3,32 µM
same,MBC,Citrobacter Freundii,4 µM
same,MIC,Citrobacter Freundii,1 µM
same,MIC,Serratia Marcescens,32 µM
same,MBC,Pseudomonas aeruginosa-2,16 µM
same,MIC,Pseudomonas aeruginosa-2,4 µM
same,MBC,Pseudomonas aeruginosa-1,16 µM
same,MIC,Pseudomonas aeruginosa-1,8 µM
same,MIC,Morganella morganil,32 µM
same,MBC,Klebsiella pheumoniae,8 µM
same,MIC,Klebsiella pheumoniae,2 µM
same,MIC,Enterococcus-2,32 µM
same,MBC,Acinetobacter Cal Anit,1 µM
same,MIC,Acinetobacter Cal Anit,0.5 µM
same,MBC,Klebsiella pheumoniae-2,8 µM
same,MIC,Klebsiella pheumoniae-2,4 µM
same,antibacterial result of treatment (Table I; MBC),S. aureus; S. auerus (+),64 µM
same,MBC,"S. aureus; Table III, S. aureus (+)",64 µM
same,"viability at 1 h, 100 μM","[2]; normal 3T3 human fibroblasts, 3T3 Suspension (trypsinized)",12%
same,"viability at 1 h, 100 μM",[2]; 3T3 Monolayer,94%
same,"viability at 15 minutes, 100 μM",[3]; Cold-treated (4° C.),70%
same,"viability at 15 minutes, 100 μM",[3]; Warm-treated (37° C.),96%
same,"viability at 15 minutes, 100 μM","[3]; with colchicine 0.1 μg/ml (cytoskeletal inhibitor), Colchicine-treated (0.1 μg/ml)",40%
same,"viability at 15 minutes, 100 μM","[3]; with cytochalasin D 5 μg/ml (cytoskeletal inhibitor), Cytochalasin D-treated (5 μg/ml)",32%
CC(C)C[C@H](NC(=O)[C@H](CCCCN)NC(=O)[C@H](CCCCN)NC(=O)[C@H](C)NC(=O)[C@H](CC(C)C)NC(=O)[C@H](CCCCN)NC(=O)[C@H](C)NC(=O)[C@H](CC(C)C)NC(=O)[C@H](CCCCN)NC(=O)[C@H](CCCCN)NC(=O)[C@H](C)NC(=O)[C@H](CC(C)C)NC(=O)[C@H](CCCCN)NC(=O)[C@H](CCCCN)NC(=O)[C@H](CC(C)C)NC(=O)[C@H](CCCCN)NC(=O)[C@H](CCCCN)NC(=O)[C@H](C)NC(=O)[C@H](CC(C)C)NC(=O)[C@H](CCCCN)NC(=O)[C@H](CCCCN)NC(=O)[C@H](C)NC(=O)[C@@H](N)Cc1ccccc1)C(N)=O [Anubis-2] (H-FAKKLAKKLKKLAKKLAKLAKKL-NH2),"3H-Thymidine Uptake in WBC, % of Control","[4]; peptide 10 μM, PHA 0 mg",149%
same,"3H-Thymidine Uptake in WBC, % of Control","[4]; peptide 10 μM, PHA 0.5 mg",290%
same,"3H-Thymidine Uptake in WBC, % of Control","[4]; peptide 10 μM, PHA 5.0 mg",120%
same,"3H-Thymidine Uptake in WBC, % of Control","[4]; peptide 25 μM, PHA 0 mg",46%
same,"3H-Thymidine Uptake in WBC, % of Control","[4]; peptide 25 μM, PHA 0.5 mg",393%
same,"3H-Thymidine Uptake in WBC, % of Control","[4]; peptide 25 μM, PHA 5.0 mg",108%
same,"3H-Thymidine Uptake in WBC, % of Control","[4]; peptide 50 μM, PHA 0 mg",19%
same,"3H-Thymidine Uptake in WBC, % of Control","[4]; peptide 50 μM, PHA 0.5 mg",4%
same,"3H-Thymidine Uptake in WBC, % of Control","[4]; peptide 50 μM, PHA 5.0 mg",1%
same,"3H-Thymidine Uptake in WBC, % of Control","[4]; peptide 100 μM, PHA 0 mg",26%
same,"3H-Thymidine Uptake in WBC, % of Control","[4]; peptide 100 μM, PHA 0.5 mg",5%
same,"3H-Thymidine Uptake in WBC, % of Control","[4]; peptide 100 μM, PHA 5.0 mg",0%
same,MBC,Staph Coag neg,3.2 µM
same,MIC,Staph Coag neg,1.6 µM
same,MBC,Enterococcus-1,3.2 µM
same,MIC,Enterococcus-1,1.6 µM
same,MBC,Enterobacteria Cloacae,12.8 µM
same,MIC,Enterobacteria Cloacae,6.4 µM
same,MBC,Staph aureus-MR-2,25.6 µM
same,MIC,Staph aureus-MR-2,12.8 µM
same,MBC,Pseudomonas aeruginosa-3,51.2 µM
same,MIC,Pseudomonas aeruginosa-3,6.4 µM
same,MBC,Staph aureus,51.2 µM
same,MIC,Staph aureus,6.4 µM
same,MBC,Citrobacter Diversus,6.4 µM
same,MIC,Citrobacter Diversus,3.2 µM
same,MBC,Eschera Coli,12.8 µM
same,MIC,Eschera Coli,6.4 µM
same,MIC,Enterococcus-3,51.2 µM
same,MBC,Citrobacter Freundii,6.4 µM
same,MIC,Citrobacter Freundii,3.2 µM
same,MIC,Serratia Marcescens,51.2 µM
same,MBC,Pseudomonas aeruginosa-2,6.4 µM
same,MIC,Pseudomonas aeruginosa-2,3.2 µM
same,MBC,Pseudomonas aeruginosa-1,25.6 µM
same,MIC,Pseudomonas aeruginosa-1,6.4 µM
same,MIC,Morganella morganil,51.2 µM
same,MBC,Klebsiella pheumoniae,6.4 µM
same,MIC,Klebsiella pheumoniae,3.2 µM
same,MIC,Enterococcus-2,51.2 µM
same,MBC,Acinetobacter Cal Anit,3.2 µM
same,MIC,Acinetobacter Cal Anit,3.2 µM
same,MBC,Klebsiella pheumoniae-2,25.6 µM
same,MIC,Klebsiella pheumoniae-2,6.4 µM
same,MIC,Staph auerus-MR-1,51.2 µM
